Test results as given in PubChem BioAssay (NCI).
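Step 1: Grow cells in 96-well plates. Step 2: Expose to compound for 48 hours at 5 concentrations. Step 3: Interpolate endpoints linearly; if unreached, use highest concentration. GI50 = concentration required for 50% inhibition of growth. The concentration for full growth arrest is given as TGI.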

How the values were obtained:
Assay in all cases: NCI anticancer screen, dose series, 48 h
CAKI-1 renal = tested on: CAKI-1 renal
K-562 leukemia = tested on: K-562 leukemia
T-47D breast = tested on: T-47D breast
CCRF-CEM leukemia = tested on: CCRF-CEM leukemia
A549 NSCLC = tested on: A549 NSCLC
MOLT-4 leukemia = tested on: MOLT-4 leukemia
PC-3 prostate = tested on: PC-3 prostate
OVCAR-5 ovarian = tested on: OVCAR-5 ovarian
DLD-1 colon = tested on: DLD-1 colon

Row | Compound | GI50 (CAKI-1 renal) [µM] | TGI (CAKI-1 renal) [µM] | GI50 (K-562 leukemia) [µM] | TGI (K-562 leukemia) [µM] | GI50 (T-47D breast) [µM] | TGI (T-47D breast) [µM] | GI50 (CCRF-CEM leukemia) [µM] | TGI (CCRF-CEM leukemia) [µM] | GI50 (A549 NSCLC) [µM] | TGI (A549 NSCLC) [µM] | GI50 (MOLT-4 leukemia) [µM] | TGI (MOLT-4 leukemia) [µM] | GI50 (PC-3 prostate) [µM] | TGI (PC-3 prostate) [µM] | GI50 (OVCAR-5 ovarian) [µM] | TGI (OVCAR-5 ovarian) [µM] | GI50 (DLD-1 colon) [µM] | TGI (DLD-1 colon) [µM]
1 | NC(=S)N/N=C/c1ccc(OC(=O)COc2ccc(Cl)cc2)cn1 | 4.3 | 97.4 | 1.36 | > 100 | 8.62 | > 100 | 2.73 | > 100 | 34.5 | > 100 | 2.26 | > 100 | 4.67 | > 100 | 41.6 | > 100 |  | 
2 | COc1cc(OC)c(/C=C/C(=O)c2c(OC)cccc2OC)c(OC)c1 | 0.463 | 97 | 0.444 | > 100 | 0.383 | > 100 | 1.23 | > 100 | 0.907 | > 100 | 1.17 | > 100 | 1.17 | > 100 | 2.17 | > 100 |  | 
3 | CC(=O)[CH-]C(=O)c1ccccc1.CC(=O)[CH-]C(=O)c1ccccc1.O=C([O-])c1ccc([O-])cc1.O=C([O-])c1ccc([O-])cc1.[Ti+4] | 35.6 | > 100 | 33.5 | > 100 |  |  | 15.4 | 62.8 | 69.1 | > 100 | 23.8 | 79.3 |  |  | 74.5 | > 100 | > 100 | > 100
4 | CCS(=O)(=O)c1ccc(OC)c(Nc2ncc(-c3cccc(C(C)=O)c3)o2)c1 | 8.71 | > 25 | 7.56 | > 25 | 16.7 | > 25 | > 25 | > 25 | > 25 | > 25 | > 25 | > 25 | > 25 | > 25 | > 25 | > 25 |  | 
5 | COC(=O)Nc1nc2ccc(Oc3ccc(NC(=O)Nc4ccccc4)cc3)cc2[nH]1 | 3.4 | > 21.7 | 0.105 | > 9.63 | 0.131 | 21.7 | 0.123 | > 8.59 | 0.533 | 5.32 | 0.184 | > 10.3 | 0.15 | > 9.6 | 1.06 | > 14.4 |  | 
6 | CC/C=C\C[C@@H]1C/C=C2/C(=O)C=C[C@H]2C/C=C\CCCC(=O)O1 | 0.42 | 1.77 | 0.239 | 0.724 | 1.6 | 6.28 | 0.24 | 1.58 | 0.526 | 2.2 | 0.551 | 2.71 | 0.535 | 2.39 | 1.51 | 3.78 |  | 
7 | Cc1ccc(/C(=C/C=C(C#N)C#N)Sc2ccc(Cl)cc2)cc1 | 2.03 | 5.3 | 3.34 | 18.4 | 18.8 | 56.5 | 2.41 | 17.4 | 12.4 | 28 | 1.85 | 14.3 | 3.65 | 14.7 | 11.4 | 25.5 |  | 
